Measurements reported in ChEMBL document CHEMBL5465560, “Selectivity Literature for EUbOPEN Chemogenomic Library” (2024).

How the values were obtained:
[1] = target: T1, Tyrosine-protein kinase Tec (Homo sapiens) (UniProt P42680); conditions: at 10 µM
T1 sequence (whole entry): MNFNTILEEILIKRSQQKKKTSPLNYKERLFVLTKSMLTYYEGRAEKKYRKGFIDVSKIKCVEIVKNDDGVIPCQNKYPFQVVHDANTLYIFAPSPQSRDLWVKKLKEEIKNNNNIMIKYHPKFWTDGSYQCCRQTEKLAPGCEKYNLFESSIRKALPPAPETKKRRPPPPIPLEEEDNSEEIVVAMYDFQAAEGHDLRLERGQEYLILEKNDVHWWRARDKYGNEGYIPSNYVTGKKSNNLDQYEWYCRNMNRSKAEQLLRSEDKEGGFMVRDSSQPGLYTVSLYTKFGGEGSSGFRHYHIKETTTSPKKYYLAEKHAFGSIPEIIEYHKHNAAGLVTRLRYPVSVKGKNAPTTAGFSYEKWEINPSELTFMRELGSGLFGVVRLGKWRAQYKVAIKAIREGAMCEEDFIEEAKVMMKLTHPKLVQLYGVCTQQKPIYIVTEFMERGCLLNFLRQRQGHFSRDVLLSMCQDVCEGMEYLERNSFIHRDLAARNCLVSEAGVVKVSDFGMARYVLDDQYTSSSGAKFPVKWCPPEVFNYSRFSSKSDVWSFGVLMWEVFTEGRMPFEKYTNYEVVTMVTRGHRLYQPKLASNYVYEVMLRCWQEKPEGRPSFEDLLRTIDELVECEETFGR

[2] = target: Death-associated protein kinase 2 (Homo sapiens) (UniProt Q9UIK4); test: Selectivity interaction (KinomeScan (DiscoverX)) EUB0001079a DAPK2; conditions: at 1 µM
Death-associated protein kinase 2 (Homo sapiens), sequence (Q9UIK4 whole entry, looked up): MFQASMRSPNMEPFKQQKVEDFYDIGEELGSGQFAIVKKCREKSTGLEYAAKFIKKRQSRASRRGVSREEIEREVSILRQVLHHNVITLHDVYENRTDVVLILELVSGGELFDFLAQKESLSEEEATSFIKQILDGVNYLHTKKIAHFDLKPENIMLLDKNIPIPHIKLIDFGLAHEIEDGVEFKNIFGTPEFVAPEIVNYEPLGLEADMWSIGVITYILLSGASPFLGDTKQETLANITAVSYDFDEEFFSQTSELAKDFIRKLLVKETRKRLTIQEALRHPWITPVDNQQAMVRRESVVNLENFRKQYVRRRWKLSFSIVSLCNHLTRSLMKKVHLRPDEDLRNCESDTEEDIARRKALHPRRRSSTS

[3] = target: T2, Myosin light chain kinase (Homo sapiens) (UniProt Q32MK0); test: Selectivity interaction (KinomeScan (DiscoverX)) EUB0001079a MYLK3; conditions: at 1 µM
T2 sequence (whole entry): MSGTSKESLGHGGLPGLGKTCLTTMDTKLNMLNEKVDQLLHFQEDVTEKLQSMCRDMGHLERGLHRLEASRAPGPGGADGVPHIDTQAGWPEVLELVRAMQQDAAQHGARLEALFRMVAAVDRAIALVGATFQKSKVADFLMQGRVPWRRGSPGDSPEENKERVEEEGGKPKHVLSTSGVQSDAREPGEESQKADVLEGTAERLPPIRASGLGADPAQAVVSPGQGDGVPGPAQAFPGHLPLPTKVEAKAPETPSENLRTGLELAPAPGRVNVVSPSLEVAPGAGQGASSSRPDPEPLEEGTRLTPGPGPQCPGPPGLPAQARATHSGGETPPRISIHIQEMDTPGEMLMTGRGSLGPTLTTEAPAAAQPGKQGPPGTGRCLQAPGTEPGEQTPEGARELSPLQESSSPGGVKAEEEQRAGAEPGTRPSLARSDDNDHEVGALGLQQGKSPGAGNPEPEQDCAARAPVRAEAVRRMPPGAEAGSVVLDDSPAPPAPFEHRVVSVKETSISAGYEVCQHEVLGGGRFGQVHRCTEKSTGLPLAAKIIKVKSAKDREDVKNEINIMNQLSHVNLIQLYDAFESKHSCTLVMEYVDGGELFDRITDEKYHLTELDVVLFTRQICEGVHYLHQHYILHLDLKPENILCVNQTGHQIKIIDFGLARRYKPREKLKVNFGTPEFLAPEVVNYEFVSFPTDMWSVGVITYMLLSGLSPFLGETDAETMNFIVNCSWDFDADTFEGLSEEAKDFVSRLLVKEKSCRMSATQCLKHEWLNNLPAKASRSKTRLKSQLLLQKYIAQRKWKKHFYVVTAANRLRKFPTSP

[4] = target: Serine/threonine-protein kinase B-raf (Homo sapiens) (UniProt P15056); test: (§1) Selectivity interaction (LanthaScreen Eu Kinase Binding Assay) EUB0001632a BRAF; conditions: at 10 µM
Serine/threonine-protein kinase B-raf (Homo sapiens), sequence (P15056 whole entry): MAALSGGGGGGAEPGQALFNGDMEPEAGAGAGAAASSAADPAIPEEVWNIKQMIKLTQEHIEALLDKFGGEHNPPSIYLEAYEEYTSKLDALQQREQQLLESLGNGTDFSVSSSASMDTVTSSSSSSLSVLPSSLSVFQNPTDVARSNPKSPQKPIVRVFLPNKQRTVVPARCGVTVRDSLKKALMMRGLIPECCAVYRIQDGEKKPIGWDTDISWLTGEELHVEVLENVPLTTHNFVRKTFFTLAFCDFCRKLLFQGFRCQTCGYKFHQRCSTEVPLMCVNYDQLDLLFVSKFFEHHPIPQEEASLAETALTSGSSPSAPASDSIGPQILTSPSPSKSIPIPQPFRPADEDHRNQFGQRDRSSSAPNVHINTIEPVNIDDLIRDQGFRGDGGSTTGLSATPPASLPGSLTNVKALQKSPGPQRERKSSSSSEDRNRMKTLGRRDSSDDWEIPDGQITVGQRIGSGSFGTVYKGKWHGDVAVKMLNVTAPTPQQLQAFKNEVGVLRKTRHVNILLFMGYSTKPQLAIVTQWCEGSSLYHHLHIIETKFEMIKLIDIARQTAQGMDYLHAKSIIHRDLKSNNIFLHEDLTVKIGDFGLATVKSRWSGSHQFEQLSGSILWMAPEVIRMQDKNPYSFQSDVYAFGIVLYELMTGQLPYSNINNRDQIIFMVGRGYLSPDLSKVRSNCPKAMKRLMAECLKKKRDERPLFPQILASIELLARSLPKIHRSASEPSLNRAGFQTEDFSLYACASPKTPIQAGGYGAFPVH

[5] = system: Serine/threonine-protein kinase B-raf (Homo sapiens), P15056 [V600E]; test: as §1; conditions: at 10 µM
Serine/threonine-protein kinase B-raf (Homo sapiens), P15056 [V600E], sequence (P15056 whole entry V600E): as the sequence (P15056 whole entry) above, with V600E counted along it

[6] = target: Mitogen-activated protein kinase kinase kinase kinase 5 (Homo sapiens) (UniProt Q9Y4K4); test: Selectivity interaction (Kinase panel (Z-LYTE Assay)) EUB0001632a MAP4K5; conditions: at 10 µM
Mitogen-activated protein kinase kinase kinase kinase 5 (Homo sapiens), sequence (Q9Y4K4 whole entry, looked up): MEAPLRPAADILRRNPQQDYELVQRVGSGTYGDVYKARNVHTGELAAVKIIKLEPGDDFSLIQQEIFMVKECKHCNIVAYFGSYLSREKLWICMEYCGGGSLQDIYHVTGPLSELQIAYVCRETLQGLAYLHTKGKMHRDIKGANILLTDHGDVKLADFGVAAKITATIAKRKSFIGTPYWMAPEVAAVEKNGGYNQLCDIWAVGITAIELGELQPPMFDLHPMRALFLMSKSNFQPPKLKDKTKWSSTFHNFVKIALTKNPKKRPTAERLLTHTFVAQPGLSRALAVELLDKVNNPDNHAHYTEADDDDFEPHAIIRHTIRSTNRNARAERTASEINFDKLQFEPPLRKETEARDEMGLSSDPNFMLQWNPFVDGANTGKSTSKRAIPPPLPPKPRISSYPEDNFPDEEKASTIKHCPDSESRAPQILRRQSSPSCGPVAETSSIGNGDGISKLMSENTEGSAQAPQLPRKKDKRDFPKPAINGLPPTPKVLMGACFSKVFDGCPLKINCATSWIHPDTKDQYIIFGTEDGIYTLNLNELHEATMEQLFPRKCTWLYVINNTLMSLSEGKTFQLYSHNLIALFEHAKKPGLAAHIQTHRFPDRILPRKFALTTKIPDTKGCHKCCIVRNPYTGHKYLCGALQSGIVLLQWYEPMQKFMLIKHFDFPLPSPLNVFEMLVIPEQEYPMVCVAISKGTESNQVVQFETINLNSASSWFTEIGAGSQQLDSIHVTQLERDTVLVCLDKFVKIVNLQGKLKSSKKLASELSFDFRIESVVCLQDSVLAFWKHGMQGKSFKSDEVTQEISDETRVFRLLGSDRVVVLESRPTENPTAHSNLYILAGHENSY

[7] = target: T3, Ephrin type-B receptor 3 (Homo sapiens) (UniProt P54753); test: Selectivity interaction (ActivX KiNativ screen (kinase selectivity in THP-1 cell lysates)) EUB0000639a EPHB3; type: subcellular; conditions: lysate
T3 sequence (whole entry): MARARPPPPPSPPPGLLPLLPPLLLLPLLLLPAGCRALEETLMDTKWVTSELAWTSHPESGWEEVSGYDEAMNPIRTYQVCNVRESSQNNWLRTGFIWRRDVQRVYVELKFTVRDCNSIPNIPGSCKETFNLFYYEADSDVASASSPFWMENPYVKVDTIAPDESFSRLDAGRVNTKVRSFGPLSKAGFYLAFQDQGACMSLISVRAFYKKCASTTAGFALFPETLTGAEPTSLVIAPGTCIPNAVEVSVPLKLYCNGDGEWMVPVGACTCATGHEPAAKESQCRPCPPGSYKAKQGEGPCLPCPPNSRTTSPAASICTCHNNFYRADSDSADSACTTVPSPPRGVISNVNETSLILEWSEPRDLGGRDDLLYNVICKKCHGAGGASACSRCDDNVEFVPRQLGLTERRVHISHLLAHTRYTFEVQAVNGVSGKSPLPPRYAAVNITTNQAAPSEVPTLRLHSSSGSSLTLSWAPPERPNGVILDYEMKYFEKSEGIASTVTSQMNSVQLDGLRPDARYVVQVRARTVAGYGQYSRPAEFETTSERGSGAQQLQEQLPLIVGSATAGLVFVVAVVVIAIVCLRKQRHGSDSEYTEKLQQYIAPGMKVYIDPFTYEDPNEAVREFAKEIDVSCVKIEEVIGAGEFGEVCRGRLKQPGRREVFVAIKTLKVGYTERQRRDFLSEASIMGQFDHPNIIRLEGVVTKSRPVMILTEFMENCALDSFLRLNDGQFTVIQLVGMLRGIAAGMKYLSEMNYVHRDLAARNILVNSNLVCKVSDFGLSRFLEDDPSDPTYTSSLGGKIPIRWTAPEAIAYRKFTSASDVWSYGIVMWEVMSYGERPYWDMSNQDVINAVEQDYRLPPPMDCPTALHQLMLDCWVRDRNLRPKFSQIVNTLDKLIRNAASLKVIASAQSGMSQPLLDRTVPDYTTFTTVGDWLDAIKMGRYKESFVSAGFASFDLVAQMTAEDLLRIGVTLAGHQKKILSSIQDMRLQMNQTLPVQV

[8] = target: Serine/threonine-protein kinase PAK 6 (Homo sapiens) (UniProt Q9NQU5); test: Selectivity interaction (Kinase panel (Invitrogen)) EUB0000639a PAK6; conditions: at 200 nM
Serine/threonine-protein kinase PAK 6 (Homo sapiens), sequence (Q9NQU5 whole entry, looked up): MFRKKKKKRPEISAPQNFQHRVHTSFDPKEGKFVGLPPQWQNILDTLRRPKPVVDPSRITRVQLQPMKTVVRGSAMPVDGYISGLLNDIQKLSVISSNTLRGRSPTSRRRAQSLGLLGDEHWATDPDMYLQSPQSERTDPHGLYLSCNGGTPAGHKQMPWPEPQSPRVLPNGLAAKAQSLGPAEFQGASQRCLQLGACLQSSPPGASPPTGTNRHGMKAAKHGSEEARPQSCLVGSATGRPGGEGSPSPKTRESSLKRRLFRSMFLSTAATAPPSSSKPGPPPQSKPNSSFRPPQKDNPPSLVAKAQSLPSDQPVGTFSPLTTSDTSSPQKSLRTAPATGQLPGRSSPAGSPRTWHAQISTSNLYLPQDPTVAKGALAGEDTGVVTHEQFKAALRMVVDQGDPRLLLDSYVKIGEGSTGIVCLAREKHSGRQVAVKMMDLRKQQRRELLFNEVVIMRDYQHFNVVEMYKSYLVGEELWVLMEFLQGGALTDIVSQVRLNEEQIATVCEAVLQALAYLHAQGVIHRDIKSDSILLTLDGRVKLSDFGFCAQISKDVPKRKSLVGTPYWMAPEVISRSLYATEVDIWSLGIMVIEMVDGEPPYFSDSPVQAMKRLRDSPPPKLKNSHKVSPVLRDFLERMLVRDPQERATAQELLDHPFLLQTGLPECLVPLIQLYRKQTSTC

**Q.** `COCC(=O)NC/C=C/c1ccc2ncnc(Nc3ccc(Oc4ccc(C)nc4)c(C)c3)c2c1` [CP-724714] was tested. Which % of control [1] did it give?
**A.** Its % of control is 73%.

**Q.** Which results are given for `Nc1cnc(N2CCc3cc(S(=O)(=O)Nc4c(F)cc(Cl)cc4F)cc(N4CCCC4=O)c32)nc1` [TP-020n]?
**A.** % of control [2]: 91%; % of control [3]: 100%

**Q.** `Cn1cc(-n2cnc3c(NCc4nc5cc(Cl)c(Cl)cc5[nH]4)nc(N4CCOCC4)nc32)cn1` was tested. Which % of inhibition [4] did it give?
**A.** The % of inhibition was 5.68%.

**Q.** What about the % of inhibition [5] of the same compound?
**A.** The % of inhibition was 9.14%.

**Q.** What about the % of control [6] of the same compound?
**A.** The % of control was 3.28%.

**Q.** `CC[C@@H]1[C@H](F)C(=O)N[C@@H]1COc1nccc2cc(C(N)=O)c(OC)cc12` [ZIMLOVISERTIB] was tested. Which % of inhibition ([7]; at 0.01 µM) did it give?
**A.** Its % of inhibition is -3.9%.

**Q.** And the % of inhibition ([7]; at 0.04 µM)?
**A.** The % of inhibition was -40.1%.

**Q.** What about the % of inhibition ([7]; at 0.2 µM) of the same compound?
**A.** Its % of inhibition is -48.3%.

**Q.** What about the % of inhibition ([7]; at 1 µM) of the same compound?
**A.** The % of inhibition was -34.8%.

**Q.** And the % of inhibition ([7]; at 5 µM)?
**A.** The % of inhibition was -22.6%.

**Q.** And the % of inhibition [8]?
**A.** Its % of inhibition is 5.16%.
